Source: ChEMBL document CHEMBL4616620, “Discovery and SAR of aryl hydroxy pyrimidinones as potent small molecule agonists of the GPCR APJ” (Bioorg Med Chem Lett, 2020)
Values joined by “and” are separate entries in the source; they are usually repeats but may differ in a detail not shown here. Identical values can stand only once.

Legend:
Apelin receptor = target: T1, Apelin receptor (Homo sapiens, UniProt P35414); test: Agonist activity at human APJ expressed in HEK293 cells assessed as inhibition of forskolin-stimulated cAMP production; format: functional, cell-based
T1 sequence (P35414 whole entry): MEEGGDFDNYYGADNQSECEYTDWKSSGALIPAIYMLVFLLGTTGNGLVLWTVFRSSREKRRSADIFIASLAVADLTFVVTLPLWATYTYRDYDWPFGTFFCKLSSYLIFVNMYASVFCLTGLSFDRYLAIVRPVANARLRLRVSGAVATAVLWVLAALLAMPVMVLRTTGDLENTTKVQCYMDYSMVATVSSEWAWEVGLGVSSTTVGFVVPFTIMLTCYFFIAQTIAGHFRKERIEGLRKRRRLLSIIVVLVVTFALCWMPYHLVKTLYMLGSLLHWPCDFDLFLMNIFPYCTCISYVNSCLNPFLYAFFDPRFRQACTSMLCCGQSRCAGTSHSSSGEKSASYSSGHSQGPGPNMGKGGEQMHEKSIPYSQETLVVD

[1] = target: Voltage-gated inwardly rectifying potassium channel KCNH2 (Homo sapiens, UniProt Q12809); test: Inhibition of human ERG
[2] = AUC in mouse at 10 mg/kg, po; format: ADME, organism-based; conditions: in vivo
[3] = target: T2, Nuclear receptor subfamily 1 group I member 2 (Homo sapiens, UniProt O75469); test: Agonist activity at PXR (unknown origin)
T2 sequence (O75469 whole entry): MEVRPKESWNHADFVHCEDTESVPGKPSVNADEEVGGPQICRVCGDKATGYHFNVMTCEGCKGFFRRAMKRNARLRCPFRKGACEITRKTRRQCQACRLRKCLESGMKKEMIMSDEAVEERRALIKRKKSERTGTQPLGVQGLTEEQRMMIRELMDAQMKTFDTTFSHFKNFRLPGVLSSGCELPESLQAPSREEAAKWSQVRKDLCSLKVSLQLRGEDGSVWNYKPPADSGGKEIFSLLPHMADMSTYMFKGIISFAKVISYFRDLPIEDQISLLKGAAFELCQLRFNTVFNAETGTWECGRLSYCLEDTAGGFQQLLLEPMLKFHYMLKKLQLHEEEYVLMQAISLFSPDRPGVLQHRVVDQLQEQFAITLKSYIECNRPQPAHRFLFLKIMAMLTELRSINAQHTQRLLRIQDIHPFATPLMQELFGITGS

[4] = Tmax in mouse at 10 mg/kg, po; format: ADME, organism-based; conditions: in vivo
[5] = Permeability of compound at pH 5.5 by PAMPA assay; format: ADME; conditions: read-out: permeability
[6] = Permeability of compound at pH 7.4 by PAMPA assay; format: ADME; conditions: read-out: permeability
[7] = Cmax in mouse at 10 mg/kg, po; format: ADME, organism-based; design: dose 10 mg/kg, route oral; conditions: in vivo
[8] = target: CYP450 (isoform not stated) (Homo sapiens, UniProt P04798+P05177+P05181+P08684+P10632+P10635+P11509+P11712+P13584+P20813+P20815+P20853+P24462+P24903+P33260+P33261+P51589+P78329+P98187+Q02928+Q08477+Q16678+Q16696+Q5TCH4+Q6VVX0+Q7Z449+Q8TAV3+Q96SQ9+Q9HB55); test: Inhibition of CYP450 (unknown origin); format: ADME, protein assay
[9] = target: T3, Apelin receptor (Homo sapiens) (UniProt P35414); test: Agonist activity at human APJ expressed in HEK293 cells assessed as inhibition of forskolin-stimulated cAMP production at 10 uM relative to control; format: functional, cell-based
T3 sequence (whole entry): T1 sequence (P35414 whole entry)

Sequence of Voltage-gated inwardly rectifying potassium channel KCNH2 (Q12809 whole entry): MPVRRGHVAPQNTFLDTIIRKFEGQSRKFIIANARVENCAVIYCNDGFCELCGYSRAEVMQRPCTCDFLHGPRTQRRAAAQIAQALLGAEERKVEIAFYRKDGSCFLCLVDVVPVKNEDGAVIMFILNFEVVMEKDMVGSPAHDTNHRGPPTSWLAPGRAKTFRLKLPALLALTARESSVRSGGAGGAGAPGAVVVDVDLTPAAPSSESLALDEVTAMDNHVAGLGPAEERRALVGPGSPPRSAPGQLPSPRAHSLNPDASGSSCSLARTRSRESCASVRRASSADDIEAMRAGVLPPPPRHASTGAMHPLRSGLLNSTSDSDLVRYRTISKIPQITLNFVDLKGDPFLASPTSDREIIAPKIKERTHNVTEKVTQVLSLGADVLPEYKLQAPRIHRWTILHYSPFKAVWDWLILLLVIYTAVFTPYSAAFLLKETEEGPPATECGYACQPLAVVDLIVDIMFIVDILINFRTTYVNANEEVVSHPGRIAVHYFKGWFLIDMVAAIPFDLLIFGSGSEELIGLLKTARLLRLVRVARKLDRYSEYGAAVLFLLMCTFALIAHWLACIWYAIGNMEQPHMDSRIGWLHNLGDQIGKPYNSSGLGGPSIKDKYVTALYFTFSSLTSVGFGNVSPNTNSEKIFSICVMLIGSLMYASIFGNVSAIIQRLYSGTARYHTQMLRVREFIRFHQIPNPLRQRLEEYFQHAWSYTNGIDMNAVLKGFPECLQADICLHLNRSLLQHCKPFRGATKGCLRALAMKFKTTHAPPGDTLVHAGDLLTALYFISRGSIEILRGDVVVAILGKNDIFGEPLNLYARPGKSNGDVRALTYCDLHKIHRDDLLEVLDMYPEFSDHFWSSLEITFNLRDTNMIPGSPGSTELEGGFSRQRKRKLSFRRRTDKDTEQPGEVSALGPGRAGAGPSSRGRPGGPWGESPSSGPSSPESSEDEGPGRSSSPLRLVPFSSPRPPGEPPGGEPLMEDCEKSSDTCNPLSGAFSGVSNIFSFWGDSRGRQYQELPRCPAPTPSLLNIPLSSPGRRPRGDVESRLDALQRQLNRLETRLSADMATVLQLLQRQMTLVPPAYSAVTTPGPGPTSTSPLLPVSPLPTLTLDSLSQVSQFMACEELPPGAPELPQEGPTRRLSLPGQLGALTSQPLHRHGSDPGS

SMILES | EC50 (Apelin receptor) | further results
CCCSc1nc(=O)cc(O)n1-c1ccccc1F | 160 nM | 
CCCSc1nc(=O)c(Cc2ccccc2)c(O)n1-c1ccccc1OC | 340 nM | 
CCCSc1nc(=O)cc(O)n1-c1ccc(C)cc1 | 260 nM | 
CCCSc1nc(=O)cc(O)n1-c1ccccc1OC | 64 nM and 40 nM and 160 nM | IC50 [1]: > 80000 nM; AUC [2]: 29 µM·h; EC50 [3]: > 50000 nM; Tmax [4]: 4 h; Papp [5]: 23 ×10⁻⁶ cm/s; Papp [6]: 13.1 ×10⁻⁶ cm/s; Cmax [7]: 4.4 µM; IC50 [8]: > 20000 nM
CCCCc1nc(=O)cc(O)n1-c1c(C)cccc1OC | 5 nM and 3 nM and 2 nM | IC50 [1]: > 80000 nM; AUC [2]: 10.2 µM·h; EC50 [3]: > 14000 nM; Tmax [4]: 4 h; Papp [5]: 1.2 ×10⁻⁶ cm/s; Papp [6]: 1 ×10⁻⁶ cm/s; Cmax [7]: 1.68 µM; IC50 [8]: > 20000 nM
CCCSc1nc(=O)cc(O)n1-c1ccccc1 | 5000 nM | Efficacy [9]: 100%
CCCCc1c(O)n(-c2ccccc2OC)c(SCCC)nc1=O | 1700 nM | 
C=CCn1c(O)cc(=O)nc1SC(C)CC (stereo not given) | 4400 nM | Efficacy [9]: 100%
COc1ccccc1-n1c(O)cc(=O)nc1SCC(C)C | 78 nM | 
CCCCc1nc(=O)cc(O)n1-c1ccccc1OC | 22 nM and 24 nM and 31 nM | 
CCCSc1nc(=O)cc(O)n1-c1ccccc1Cl | 250 nM | 
C=CCc1c(O)n(-c2ccccc2OC)c(SCCC)nc1=O | 570 nM | 
CCCSc1nc(=O)c(C(C)C)c(O)n1-c1ccccc1OC | 450 nM | 
CCCSc1nc(=O)cc(O)n1-c1ccccc1C(F)(F)F | 90 nM | 
CCCSc1nc(=O)cc(O)n1-c1cccc(C)c1 | 290 nM | 
CCCCc1nc(=O)c(Cc2ccc(OC)cc2)c(O)n1-c1c(OC)cccc1OC | 13 nM | 
COc1ccccc1-n1c(O)cc(=O)nc1SC(C)C | 23 nM | 
CCCSc1nc(=O)cc(O)n1-c1ccccc1C | 100 nM | 
CCCSc1nc(=O)c(CC)c(O)n1-c1ccccc1OC | 860 nM | 
CCCCSc1nc(=O)cc(O)n1-c1ccccc1OC | 200 nM | 
CCCSc1nc(=O)cc(O)n1-c1ccc(OC)cc1 | 680 nM | 
CCCSc1nc(=O)cc(O)n1-c1ccccc1OCC | 100 nM | 
CCCSc1nc(=O)cc(O)n1-c1ccccc1CC | 140 nM | 
CCCCc1nc(=O)cc(O)n1-c1c(OC)cccc1OC | 11 nM | 
CCCSc1nc(=O)cc(O)n1-c1ccccc1Br | 155 nM | 
CCCSc1nc(=O)cc(O)n1-c1cccc(OC)c1 | 940 nM | 
CCCSc1nc(=O)c(C)c(O)n1-c1ccccc1OC | 1400 nM | 
